Values quoted from earlier work, collected in PMC12497738, “Linear and conformational epitopes of vicilin-buried peptides as a model for improved nut allergy diagnostics” (Frontiers in Allergy, 2025).
“Also recorded” adds a separate entry of the source.

Test system: 6D12 monoclonal antibody
Settings: N-terminal helix, amino acids 21–36 of folded JR2.1; unpublished communications by Dr. Geoffrey Mueller (NIEHS); ref [16]
Excerpt: The mature vicilin domains in Figure 1A are labeled Jug r 2 and Ara h 1. A human monoclonal IgE antibody (6D12) was used to assess IgE binding to conformational epitopes in JR2LS and its three constituent VBPs using ciELISA (Figures 1B,C). […] With this method, a known immunodominant epitope of Ara h 2 was used to identify a cross-reactive, linear epitope in the JR2LS ([16]). The IgE binding regions identified in this study overlap or are near the previously described epitope containing areas, emphasizing the relevance of JR2LS VBPs as clinically relevant IgE targets ([16], [17]). Here, ELISA, linear peptide microarray, and computational analysis were used to ...

Sequence: CQEYCRRQGQGQRQQ [peptide 5, …, N-terminal helix, amino acids 21–36 of the folded JR2.1]
- Binding of 6D12 to peptide 5, in words: specific binding; also recorded: the primary target of 6D12
